Test results from patent publication US9328099B2, “Cyanomethylpyrazole carboxamides as janus kinase inhibitors” (Merck Sharp & Dohme Corp., priority 2011, dated 2016).

What was measured:
JAK1 = JAK1 (Homo sapiens (Human), UniProt P23458); test: Jak Biochemical HTRF Assay, JAK1; details: HTRF biochemical assay, GST-tagged catalytic domain; top concentration tested […]; read-out: JAK1 IC50
Description: (§1) Jak Biochemical HTRF Assay Protocol
(§2) Subsequent reagent additions employed an Agilent Bravo.

JAK2 = JAK2 (Homo sapiens (Human), UniProt O60674); test: Jak Biochemical HTRF Assay, JAK2; details: HTRF biochemical assay, GST-tagged catalytic domain; top concentration tested […]
JAK2, sequence (O60674 849-1124): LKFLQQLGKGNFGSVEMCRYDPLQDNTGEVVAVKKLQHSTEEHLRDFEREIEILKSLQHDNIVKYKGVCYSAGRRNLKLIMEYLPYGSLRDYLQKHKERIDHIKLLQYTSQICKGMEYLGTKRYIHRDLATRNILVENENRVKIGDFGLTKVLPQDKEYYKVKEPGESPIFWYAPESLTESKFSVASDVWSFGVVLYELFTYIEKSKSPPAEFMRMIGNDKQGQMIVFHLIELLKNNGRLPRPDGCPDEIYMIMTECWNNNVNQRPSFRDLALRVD
Description: as §1, §2

JAK1, sequence (P23458 875-1153): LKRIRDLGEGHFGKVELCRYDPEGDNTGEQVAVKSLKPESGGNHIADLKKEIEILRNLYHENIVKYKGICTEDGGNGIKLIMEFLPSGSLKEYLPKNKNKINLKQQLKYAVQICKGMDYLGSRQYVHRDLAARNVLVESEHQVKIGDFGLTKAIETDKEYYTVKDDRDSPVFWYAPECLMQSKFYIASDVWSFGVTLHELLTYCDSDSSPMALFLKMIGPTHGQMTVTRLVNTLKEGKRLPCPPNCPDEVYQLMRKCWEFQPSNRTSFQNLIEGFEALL

| SMILES | IC50 (JAK1) | IC50 (JAK2) |
| --- | --- | --- |
| N#CCC1(n2cc(C(N)=O)c(Nc3ccc(F)cc3)n2)CCC(Nc2ccc(F)cc2)CC1 (stereo not drawn) [Example 40-19, Cis or trans 1-{1-(cyanomethyl)-4-[(4-fluorophenyl)amino]cyclohexyl}-3-[(4-fluorophenyl)amino]-1H-pyrazole-4-carboxamide] | 0.3 nM | 10 nM |
| N#CCC1(n2cc(C(N)=O)c(Nc3ccc(F)cc3)n2)CCN(c2cncc(F)c2)CC1 [Example 3-5, 1-[4-(cyanomethyl)-1-(5-fluoropyridin-3-yl)piperidin-4-yl]-3-[(4-fluorophenyl)amino]-1H-pyrazole-4-carboxamide] | 0.2 nM | 4 nM |
| N#CCC1(n2cc(C(N)=O)c(Nc3ccc(F)cc3)n2)CCN(Cc2ccc3cc[nH]c3c2)CC1 [Example 22-56, 1-[4-(cyanomethyl)-1-(1H-indol-6-ylmethyl)piperidin-4-yl]-3-[(4-fluorophenyl)amino]-1H-pyrazole-4-carboxamide] | 2 nM | 46 nM |
| N#CCC1(n2cc(C(N)=O)c(Nc3ccccc3)n2)CCN(C(=O)c2cccc(Cl)c2)CC1 [Example 34-21, l-{l-[(3-chlorophenyl)carbonyl]-4-(cyanomethyl)piperidin-4-yl}-3-(phenylamino)-lH-pyrazole-4-carboxamide] | 4 nM | 63 nM |
| N#CCC1(n2cc(C(N)=O)c(Nc3ccccc3)n2)CN(C(=O)Nc2ccc(F)c(F)c2)C1 [Example 38-21, 1-{3-(cyanomethyl)-1-[(3,4-difluorophenyl)carbamoyl]azetidin-3-yl}-3-(phenylamino)-1H-pyrazole-4-carboxamide] | 7 nM | 173 nM |
| N#CCC1(n2cc(C(N)=O)c(Nc3ccnc(F)c3)n2)CCC(Nc2cccc(Cl)c2)CC1 (stereo not drawn) [Example 40-29, Cis or trans 1-{4-[(3-chlorophenyl)amino]-1-(cyanomethyl)cyclohexyl}-3-[(2-fluoropyridin-4-yl)amino]-1H-pyrazole-4-carboxamide] | 0.07 nM | 4 nM |
| N#CCC1(n2cc(C(N)=O)c(Nc3ccc(-c4cn[nH]c4)nc3)n2)CCN(C(=O)OCC(F)(F)F)CC1 [Example 11-2, 2,2,2-trifluoroethyl 4-(4-carbamoyl-3-{[6-(1H-pyrazol-4-yl)pyridin-3-yl]amino}-1H-pyrazol-1-yl)-4-(cyanomethyl)piperidine-1-carboxylate] | 0.01 nM | 0.6 nM |
| N#CCC1(n2cc(C(N)=O)c(Nc3ccnc(F)c3)n2)CCC(Nc2ccc(Cl)cc2)CC1 (stereo not drawn) [Example 40-61, Cis or trans 1-{4-[(4-chlorophenyl)amino]-1-(cyanomethyl)cyclohexyl}-3-[(2-fluoropyridin-4-yl)amino]-1H-pyrazole-4-carboxamide] | 0.06 nM | 3 nM |
| N#CCC1(n2cc(C(N)=O)c(Nc3ccc(F)cc3)n2)CCS(=O)(=O)CC1 [Example 8, 1-(4-(Cyanomethyl)-1,1-dioxidotetrahydro-2H-thiopyran-4-yl)-3-((4-fluorophenyl)amino)-1H-pyrazole-4-carboxamide] | 50 nM | 813 nM |
| CC(C)S(=O)(=O)N1CCC(CC#N)(n2cc(C(N)=O)c(Nc3ccccc3)n2)CC1 [Example 37-1, 1-[4-(Cyanomethyl)-1-(isopropylsulfonyl)piperidin-4-yl]-3-(phenylamino)-1H-pyrazole-4-carboxamide] | 2 nM | 13 nM |
| Cc1ccc(NC(=O)N2CC(CC#N)(n3cc(C(N)=O)c(Nc4ccccc4)n3)C2)cc1 [Example 38-6, 1-{3-(cyanomethyl)-1-[(4-methylphenyl)carbamoyl]azetidin-3-yl}-3-(phenylamino)-1H-pyrazole-4-carboxamide] | 2 nM | 69 nM |
| CC(C)(C)OC(=O)N1CCC(CC#N)(n2cc(C(N)=O)c(Nc3cccc(-c4ccc(Cl)cc4)c3)n2)CC1 [Example 15-1, tert-Butyl 4-{4-carbamoyl-3-[(4′-chlorobiphenyl-3-yl)amino]-1H-pyrazol-1-yl}-4-(cyanomethyl)piperidine-1-carboxylate] | 148 nM | 1480 nM |
| N#CCC1(n2cc(C(N)=O)c(Nc3ccccc3)n2)CN(C(=O)Nc2ccc(F)cc2F)C1 [Example 38-28, 1-{3-(cyanomethyl)-1-[(2,4-difluorophenyl)carbamoyl]azetidin-3-yl}-3-(phenylamino)-1H-pyrazole-4-carboxamide] | 6 nM | 79 nM |
| COC(=O)N1CCC(CC#N)(n2cc(C(N)=O)c(Nc3ccc(S(=O)(=O)C(F)(F)F)cc3)n2)CC1 [Example 27-1, Methyl 4-(4-carbamoyl-3-(4-(trifluoromethylsulfonyl)phenylamino)-1H-pyrazol-1-yl)-4-(cyanomethyl)piperidine-1-carboxylate] | 0.3 nM | 2 nM |
| N#CCC1(n2cc(C(N)=O)c(Nc3ccc(F)cc3)n2)CCN(c2cc(F)cc(F)c2)CC1 [Example 3-40, 1-[4-(cyanomethyl)-1-(3,5-difluorophenyl)piperidin-4-yl]-3-[(4-fluorophenyl)amino]-1H-pyrazole-4-carboxamide] | 3 nM | 67 nM |
| Cc1noc(C)c1-c1ccc(Nc2nn(C3(CC#N)CCN(C(=O)OC(C)(C)C)CC3)cc2C(N)=O)cc1 [Example 14, tert-Butyl 4-(4-carbamoyl-3-{[4-(3,5-dimethylisoxazol-4-yl)phenyl]amino}-1H-pyrazol-1-yl)-4-(cyanomethyl)piperidine-1-carboxylate] | 10 nM | 38 nM |
| N#CCC1(n2cc(C(N)=O)c(Nc3ccccc3)n2)CCN(C(=O)c2ccccc2-c2ccccc2)CC1 [Example 34-29, 1-[1-(biphenyl-2-ylcarbonyl)-4-(cyanomethyl)piperidin-4-yl]-3-(phenylamino)-1H-pyrazole-4-carboxamide] | 387 nM | 1480 nM |
| N#CCC1(n2cc(C(N)=O)c(Nc3cncc(F)c3)n2)CCN(C(=O)CC(F)(F)F)CC1 [Example 35-3, 1-(4-(cyanomethyl)-1-(3,3,3-trifluoropropanoyl)piperidin-4-yl)-3-(5-fluoropyridin-3-ylamino)-1H-pyrazole-4-carboxamide] | 3 nM | 35 nM |
| N#CCC1(n2cc(C(N)=O)c(Nc3ccnc(F)c3)n2)CCN(Cc2cccc3ccnn23)CC1 [Example 22-33, 1-[4-(cyanomethyl)-1-(pyrazolo[1,5-a]pyridin-7-ylmethyl)piperidin-4-yl]-3-[(2-fluoropyridin-4-yl)amino]-1H-pyrazole-4-carboxamide] | 2 nM | 81 nM |
| N#CCC1(n2cc(C(N)=O)c(Nc3ccc(C4CCC4)nc3)n2)CCN(C(=O)OCC(F)F)CC1 [Example 9-38, 2,2-difluoroethyl 4-{4-carbamoyl-3-[(6-cyclobutylpyridin-3-yl)amino]-1H-pyrazol-1-yl}-4-(cyanomethyl)piperidine-1-carboxylate] | 0.3 nM | 3 nM |
| CC(C)(C)OC(=O)N1CC(CC#N)(n2cc(C(N)=O)c(Nc3ccc(C(=O)N4CCS(=O)(=O)CC4)cc3)n2)C1 [Example 2-8, tert-butyl 3-[4-carbamoyl-3-({4-[(1,1-dioxidothiomorpholin-4-yl)carbonyl]phenyl}amino)-1H-pyrazol-1-yl]-3-(cyanomethyl)azetidine-1-carboxylate] | 2 nM | 5 nM |
